According to US20120077801A1, “Chemical Compounds 637” (priority 2007, published 2012):
Blank lines part the entries; values can stand above or below the compound they belong to.

What was measured:
[1] = target: T1, recombinant Human Phosphodiesterase B2 (PDE4B2) (Homo sapiens, UniProt Q07343); assay: Human Phosphodiesterase B2 Alpha Screen Assay; format: biochemical; details: Alpha Screen cAMP assay, 60 minutes incubation at room temperature, read-out: PDE4B2 pIC50 (converted)
Protocol: Human Phosphodiesterase B2 Alpha Screen Assay
The assay uses recombinant Human Phosphodiesterase B2 (PDE4B2) produced in house (PrAZL0133), stored at −20° C. The substrate uses cAMP, part of the Alpha Screen cAMP kit (Perkin Elmer, Cat#6760625M), stored at 4° C. The Alpha Screen kit also includes biotinylated cAMP, acceptor and donor beads.
The assay additions were as follows: Test compounds and controls were added to white 384-well flat-bottom plates (Greiner, Cat#781075), 0.2 μl in 100% DMSO, followed by 10 μl PDE4B2 in reaction buffer. The reaction buffer constitution was: 50 mM Tris (pH 7.5), 8.3 mM MgCl2, 1.7 mM EGTA and 0.01% (w/v) Brij®35. The enzyme and the compounds were incubated at room temperature for 15 minutes. Then 10 μl cAMP in reaction buffer was added. The assay was stopped after 60 minutes incubation at room temperature by adding 10 μl acceptor beads in detection buffer with 40 mM EDTA. The detection buffer constitution was: 5 mM Tris (pH 7.5), 0.1% (w/v) BSA and 0.1% (v/v) Tween 20. This addition followed by an addition of 10 μl donor beads in detection buffer, with biotinylated cAMP. The plates were then incubated, dark at room temperature, for 5 hours followed by measurement on a Fusion™-α analyser. pIC50 values (presented in Table 14) were determined using X1fit curve fitting using model 205.

[2] = target: T1, recombinant Human Phosphodiesterase B2 (PDE4B2); assay: Human Phosphodiesterase B2 Radiometric Assay; format: biochemical; details: for IC50: read-out: PDE4B2 pIC50 (converted)
Protocol: Human Phosphodiesterase B2 Radiometric Assay
The assay uses recombinant Human Phosphodiesterase B2 (PDE4B2) produced in house (PrAZL0163), stored at −20° C. This assay is based on the observation that 5′AMP, the product of the reaction catalysed by PDE4, binds preferentially to yttrium silicate SPA beads (Amersham Biosciences, UK) compared to the substrate, cAMP. Compounds at the appropriate concentration were preincubated at 30 C for 30 min. with an assay buffer containing 50 mM HEPES (pH 7.5), 8.3 mM MgCl2, 1.7 mM EGTA, 0.01% (w/v) Brij®35 and 0.1 μg/mL recombinant PDE4B2. The reaction was started by the addition of [3H]cyclic AMP to give a final concentration of 8 nM, and was stopped 20 minutes after the addition of the substrate by the addition of yttrium silicate SPA beads containing 18 mM Zn SO4. Bound [3H]cyclic AMP was measured using a Topcount NXT (Packard Bioscience, UK). pIC50 values (presented in Table 15) were determined using X1fit3 curve fitting, using model 205.

[3] = recombinant human PDE4B2, [3H]cyclic AMP 8 nM, SPA radiometric assay

T1 sequence (Q07343 1-564 isoform Q07343-2): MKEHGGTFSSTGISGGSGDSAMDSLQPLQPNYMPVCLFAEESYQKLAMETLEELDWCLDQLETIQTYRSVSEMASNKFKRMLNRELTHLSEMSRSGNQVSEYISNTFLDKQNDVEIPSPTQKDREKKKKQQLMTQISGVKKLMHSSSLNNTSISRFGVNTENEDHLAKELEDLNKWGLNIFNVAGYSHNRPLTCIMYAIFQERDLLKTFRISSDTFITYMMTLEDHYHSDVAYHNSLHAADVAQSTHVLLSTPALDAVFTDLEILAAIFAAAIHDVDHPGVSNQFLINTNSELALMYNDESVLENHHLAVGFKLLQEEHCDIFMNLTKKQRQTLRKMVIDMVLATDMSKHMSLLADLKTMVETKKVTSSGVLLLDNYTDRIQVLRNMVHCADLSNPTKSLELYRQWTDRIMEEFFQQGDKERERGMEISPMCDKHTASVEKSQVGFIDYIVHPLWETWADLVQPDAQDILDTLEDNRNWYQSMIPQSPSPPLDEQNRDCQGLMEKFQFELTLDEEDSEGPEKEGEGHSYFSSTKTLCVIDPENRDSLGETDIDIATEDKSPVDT

IC50 [1]: 50.1 nM
Structure (SMILES): COC(=O)[C@H]1CC[C@H](n2c(=O)n([C@H]3CC[C@@H](NC(=O)C4CC4)CC3)c(=O)c3cc(F)cnc32)CC1 [Example 8, methyl trans-4-[3-{cis-4-[(cyclopropylcarbonyl)amino]cyclohexyl}-6-fluoro-2,4-dioxo-3,4-dihydropyrido[2,3-d]pyrimidin-1(2H)-yl]cyclohexanecarboxylate]

PDE4B2 % at 0.32 uM (printed in the pIC50 column) ([2]; at 0.32 uM, recombinant human PDE4B2, radiometric assay): 50% at 0.32 uM
Structure (SMILES): CN1CCC(n2c(=O)n([C@H]3CC[C@@H](NC(=O)c4cn5cc(F)ccc5n4)CC3)c(=O)c3cc(F)cnc32)CC1 [Example 40, 6-fluoro-N-{cis-4-[6-fluoro-1-(1-methylpiperidin-4-yl)-2,4-dioxo-1,4-dihydropyrido[2,3-d]pyrimidin-3(2H)-yl]cyclohexyl}imidazo[1,2-a]pyridine-2-carboxamide]

IC50 [2, 3]: 158 nM
Structure (SMILES): CN(C)CCCn1c(=O)n([C@H]2CC[C@@H](NC(=O)c3cn4cc(F)ccc4n3)CC2)c(=O)c2cc(F)cnc21 [Example 41, N-{cis-4-[1-[3-(dimethylamino)propyl]-6-fluoro-2,4-dioxo-1,4-dihydropyrido[2,3-d]pyrimidin-3(2H)-yl]cyclohexyl}-6-fluoroimidazo[1,2-a]pyridine-2-carboxamide]

Structure (SMILES): O=C(NC1CN2CCC1CC2)c1cccc(-n2c(=O)n([C@H]3CC[C@@H](NC(=O)c4cn5cc(F)ccc5n4)CC3)c(=O)c3cc(F)cnc32)c1 (some centres unmarked) [Example 42]
PDE4B2 pIC50 [2, 3]: 7.7

IC50 [2, 3]: 1 nM
Structure (SMILES): O=C(N[C@H]1CC[C@@H](n2c(=O)c3cc(F)cnc3n(-c3cccc(OCCN4CCOCC4)c3)c2=O)CC1)c1cn2cc(F)ccc2n1 [Example 43, 6-fluoro-N-{cis-4-[6-fluoro-1-[3-(2-morpholin-4-ylethoxy)phenyl]-2,4-dioxo-1,4-dihydropyrido[2,3-d]pyrimidin-3 (2H)-yl]cyclohexyl}imidazo[1,2-a]pyridine-2-carboxamide]
